The results in this text go back to US20250179073A1, “TRICYCLIC HETEROCYCLE COMPOUNDS AS IAP ANTAGONISTS” (Ascentage Pharma (Suzhou) Co., Ltd., priority 2022, published 2025).

The subject of test [1] is MDA-MB-231 cells. Kind of test: Cell proliferation assay (CellTiter-Glo), MDA-MB-231. To be noted: Homo sapiens, MDA-MB-231, 72 h, 72 h treatment, Celltiter-Glo luminescence. It is filed as cell-based. Summed up: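 MDA-MB-231 (RPMI-1640/10% FBS) and EVSA-T (MEM/10% FBS) cells, 10000 cells/well, exposed 72 h to compound at […]. Viability read by CellTiter-Glo luminescence after 15 min at room temperature. IC50 from control-normalised curve fitting.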

Test [2] deals with EVSA-T cells. Put plainly: Cell proliferation assay (CellTiter-Glo), EVSA-T. It is filed as cell-based. To be noted: Homo sapiens, EVSA-T, 72 h, 72 h treatment, Celltiter-Glo luminescence. The protocol:
Example 238: Cell Proliferation Assay
MDA-MB-231 and EVSA-T cells (10000 cells/well) were plated onto 96-well plates (Corning, Cat #3917) in 95 μL of medium (RPMI-1640 containing 10% FBS and MEM containing 10% FBS, respectively). Compounds with various concentrations ([…]) were added to the wells. After treatment for 72 h, 30 μL of Celltiter-Glo reagent (Promega, Cat #G7573) was added and incubated at room temperature for 15 min, then the luminescent signal was determined using a microplate reader (Biotek, SynergyH1). The inhibitor dose-response curves were analyzed using normalized IC50 regression curve fitting with control based normalization.

By IC50 is commonly meant the concentration that inhibits the measured activity by half.

Take `COC(=O)N1CCN(CC2CN[C@H](C)CN2CC(=O)N2CC(C)(C)c3c2cc(Cc2ccc(F)cc2)c2ncnn32)[C@H](C)C1` (stereo in doubt) [Compound 223, methyl (R)-4-(((2S,5R)-1-(2-(4-(4-fluorobenzyl)-8,8-dimethyl-7,8-dihydro-6H-pyrrolo[2,3-e][1,2,4]triazolo[1,5-a]pyridin-6-yl)-2-oxoethyl)-5-methylpiperazin-2-yl)methyl)-3-methylpiperazine-1-carboxylate]: the concentration for half-maximal inhibition (IC50) worked out at 77 nM in test [1] and 3 nM in test [2].
Regarding `C[C@@H]1CN(CC(=O)N2CC(C)(C)c3c2cc(Cc2ccc(F)cc2)c2cncn32)[C@@H](CN2CCOC[C@H]2C)CN1` [Compound 1, 1-(4-(4-fluorobenzyl)-8,8-dimethyl-7,8-dihydro-6H-imidazo[1,5-a]pyrrolo[2,3-e]pyridin-6-yl)-2-((2R,5R)-5-methyl-2-(((R)-3-methylmorpholino)methyl)piperazin-1-yl)ethan-1-one], the half-inhibitory concentration (IC50) in test [1] came out at 77 nM; in test [2], 7 nM.
In the same order, the values of `Cc1ncc2c(Cc3ccc(F)cc3)cc3c(n12)C(C)(C)CN3C(=O)CN1C[C@@H](C)NC[C@@H]1CN1CCOC[C@H]1C` [Compound 2, 1-(4-(4-fluorobenzyl)-1,8,8-trimethyl-7,8-dihydro-6H-imidazo[1,5-a]pyrrolo[2,3-e]pyridin-6-yl)-2-((2R,5R)-5-methyl-2-(((R)-3-methylmorpholino)methyl)piperazin-1-yl)ethan-1-one] are 110 nM and 13 nM.
The matching figures for `C[C@@H]1CN(CC(=O)N2CC(C)(C)c3c2cc(Cc2ccc(F)cc2)c2nc(C#N)nn32)[C@@H](CN2CCOC[C@H]2C)CN1` [Compound 32, 4-(4-fluorobenzyl)-8,8-dimethyl-6-(2-((2R,5R)-5-methyl-2-(((R)-3-methylmorpholino)methyl)piperazin-1-yl)acetyl)-7,8-dihydro-6H-pyrrolo[2,3-e][1,2,4]triazolo[1,5-a]pyridine-2-carbonitrile]: 60 nM and 20 nM.
For `Cc1nc2c(Cc3ccc(F)cc3)cc3c(n2n1)C(C)(C)CN3C(=O)CN1C[C@@H](C)NC[C@@H]1CN1CCOC[C@H]1C` [Compound 36, 1-(4-(4-fluorobenzyl)-2,8,8-trimethyl-7,8-dihydro-6H-pyrrolo[2,3-e][1,2,4]triazolo[1,5-a]pyridin-6-yl)-2-((2R,5R)-5-methyl-2-(((R)-3-methylmorpholino)methyl)piperazin-1-yl)ethan-1-one], the values for the IC50 in test [1] and in test [2] were 36 nM and 2 nM, respectively.
In the same order, the values of `C[C@@H]1CN(CC(=O)N2CC(C)(C)c3c2cc(Cc2ccc(F)cc2)c2nc(CO)nn32)[C@@H](CN2CCOC[C@H]2C)CN1` [Compound 37, 1-(4-(4-fluorobenzyl)-2-(hydroxymethyl)-8,8-dimethyl-7,8-dihydro-6H-pyrrolo[2,3-e][1,2,4]triazolo[1,5-a]pyridin-6-yl)-2-((2R,5R)-5-methyl-2-(((R)-3-methylmorpholino)methyl)piperazin-1-yl)ethan-1-one] are 71 nM and 4 nM.
In the case of `C[C@@H]1CN(CC(=O)N2CC(C)(C)c3c2cc(Cc2ccccc2F)c2ncnn32)[C@@H](CN2CCOC[C@H]2C)CN1` [Compound 38, 1-(4-(2-fluorobenzyl)-8,8-dimethyl-7,8-dihydro-6H-pyrrolo[2,3-e][1,2,4]triazolo[1,5-a]pyridin-6-yl)-2-((2R,5R)-5-methyl-2-(((R)-3-methylmorpholino)methyl)piperazin-1-yl)ethan-1-one], the IC50 in test [1] was determined as 150 nM; in test [2], 6 nM.
In the same order, the values of `C[C@@H]1CN(CC(=O)N2CC(C)(C)c3c2cc(Cc2cccc(F)c2)c2ncnn32)[C@@H](CN2CCOC[C@H]2C)CN1` [Compound 39, 1-(4-(3-fluorobenzyl)-8,8-dimethyl-7,8-dihydro-6H-pyrrolo[2,3-e][1,2,4]triazolo[1,5-a]pyridin-6-yl)-2-((2R,5R)-5-methyl-2-(((R)-3-methylmorpholino)methyl)piperazin-1-yl)ethan-1-one] are 150 nM and 34 nM.
As to `C[C@@H]1CN(CC(=O)N2CC(C)(C)c3c2cc(Cc2ccc(F)cc2F)c2ncnn32)[C@@H](CN2CCOC[C@H]2C)CN1` [Compound 40, 1-(4-(2,4-difluorobenzyl)-8,8-dimethyl-7,8-dihydro-6H-pyrrolo[2,3-e][1,2,4]triazolo[1,5-a]pyridin-6-yl)-2-((2R,5R)-5-methyl-2-(((R)-3-methylmorpholino)methyl)piperazin-1-yl)ethan-1-one], the 50% inhibitory concentration (IC50) in test [1] is 59 nM; in test [2], 3 nM.
Turning to `C[C@@H]1CN(CC(=O)N2CC(C)(C)c3c2cc(Cc2ccc(F)cc2)c2cnc(-c4ccc(F)cc4)n32)[C@@H](CN2CCOC[C@H]2C)CN1` [Example 8, 1-(4-(4-fluorobenzyl)-1-(4-fluorophenyl)-8,8-dimethyl-7,8-di hydro-6H-imidazo[1,5-a]pyrrolo[2,3-e]pyridin-6-yl)-2-((2R,5R)-5-methyl-2-(((R)-3-methylmorpholino)methyl)piperazin-1-yl)ethan-1-one], the IC50 in test [1] is 36 nM.
Still for that read-out and setting: next, `C[C@@H]1CN(CC(=O)N2CC(C)(C)c3c2cc(Cc2ccc(F)cc2)c2nc(NS(C)(=O)=O)nn32)[C@@H](CN2CCOC[C@H]2C)CN1` [Example 15, N-(4-(4-fluorobenzyl)-8,8-dimethyl-6-(2-((2R,5R)-5-methyl-2-(((R)-3-methylmorpholino)methyl)piperazin-1-yl)acetyl)-7,8-dihydro-6H-pyrrolo[2,3-e][1,2,4]triazolo[1,5-a]pyridin-2-yl)methanesulfonamide]: above 10000 nM.
On the same count and under the same terms, then `C[C@@H]1CN(CC(=O)N2CC(C)(C)c3c2cc(Cc2ccc(F)cc2)c2nc(N(S(C)(=O)=O)S(C)(=O)=O)nn32)[C@@H](CN2CCOC[C@H]2C)CN1` [Example 16, N-(4-(4-fluorobenzyl)-8,8-dimethyl-6-(2-((2R,5R)-5-methyl-2-(((R)-3-methylmorpholino)methyl)piperazin-1-yl)acetyl)-7,8-dihydro-6H-pyrrolo[2,3-e][1,2,4]triazolo[1,5-a]pyridin-2-yl)-N-(methylsulfonyl)methanesulfonamide], with 6260 nM; and `C[C@@H]1CN(CC(=O)N2CC(C)(C)c3c2cc(Cc2ccc(F)cc2)n2c(C(F)(F)F)nnc32)[C@@H](CN2CCOC[C@H]2C)CN1` [Example 22, 1-(5-(4-fluorobenzyl)-9,9-dimethyl-3-(trifluoromethyl)-8,9-dihydro-7H-pyrrolo[3,2-c][1,2,4]triazolo[4,3-a]pyridin-7-yl)-2-((2R,5R)-5-methyl-2-(((R)-3-methylmorpholino)methyl)piperazin-1-yl)ethan-1-one], with 3710 nM; and `C[C@@H]1CN(CC(=O)N2CC(C)(C)c3c2cc(Cc2ccc(F)cc2)n2cnnc32)[C@@H](CN2CCOC[C@H]2C)CN1` [Example 23, 1-(5-(4-fluorobenzyl)-9,9-dimethyl-8,9-dihydro-7H-pyrrolo[3,2-c][1,2,4]triazolo[4,3-a]pyridin-7-yl)-2-((2R,5R)-5-methyl-2-(((R)-3-methylmorpholino)methyl)piperazin-1-yl)ethan-1-one], with 320 nM.
Same read-out and setting: next, `C[C@@H]1CN(CC(=O)N2CC(C)(C)c3c2cc(Cc2ccc(F)cc2)n2ccnc32)[C@@H](CN2CCOC[C@H]2C)CN1` [Example 24, 1-(5-(4-fluorobenzyl)-9,9-dimethyl-8,9-dihydro-7H-imidazo[1,2-a]pyrrolo[3,2-c]pyridin-7-yl)-2-((2R,5R)-5-methyl-2-(((R)-3-methylmorpholino)methyl)piperazin-1-yl)ethan-1-one]: 240 nM.
Regarding `C[C@@H]1CN(CC(=O)N2CC(C)(C)c3c2cc(Cc2ccc(F)cc2)c2nccnc32)[C@@H](CN2CCOC[C@H]2C)CN1` [Example 26, 1-(5-(4-fluorobenzyl)-9,9-dimethyl-8,9-dihydro-7H-pyrrolo[3,2-f]quinoxalin-7-yl)-2-((2R,5R)-5-methyl-2-(((R)-3-methylmorpholino)methyl)piperazin-1-yl)ethan-1-one], in test [1], the half-maximal inhibitory concentration (IC50) was 180 nM.
Consider `C[C@@H]1CN(CC(=O)N2CC(C)(C)c3c2cc(Cc2ccc(F)cc2)c2ncsc32)[C@@H](CN2CCOC[C@H]2C)CN1` [Example 27, 1-(4-(4-fluorobenzyl)-8,8-dimethyl-7,8-dihydro-6H-thiazolo[5,4-e]indol-6-yl)-2-((2R,5R)-5-methyl-2-(((R)-3-methylmorpholino)methyl)piperazin-1-yl)ethan-1-one], for which, in test [1], the IC50 is 260 nM.
Same read-out and setting: then `C[C@@H]1CN(CC(=O)N2CC(C)(C)c3c2cc(Cc2ccc(F)cc2)c2scnc32)[C@@H](CN2CCOC[C@H]2C)CN1` [Example 28, 1-(4-(4-fluorobenzyl)-8,8-dimethyl-7,8-dihydro-6H-thiazolo[4,5-e]indol-6-yl)-2-((2R,5R)-5-methyl-2-(((R)-3-methylmorpholino)methyl)piperazin-1-yl)ethan-1-one], with 330 nM; and `C[C@@H]1CN(CC(=O)N2CC(C)(C)c3c2cc(Cc2ccc(F)cc2)c2nc(=O)n(C)n32)[C@@H](CN2CCOC[C@H]2C)CN1` [compound 127, 4-(4-fluorobenzyl)-1,8,8-trimethyl-6-(2-((2R,5R)-5-methyl-2-(((R)-3-methylmorpholino)methyl)piperazin-1-yl)acetyl)-7,8-dihydro-1H-pyrrolo[2,3-e][1,2,4]triazolo[1,5-a]pyridin-2(6H)-one], with 3080 nM.
